Data on 20 compounds can be found in patent publication US9802901B2, “Antibacterial 2H-indazole derivatives” (priority 2013, dated 2017).

What all share (assay): Bacterial growth minimal inhibitory concentration (broth microdilution, CLSI M7-A7)
On the technique in general: In broth dilution the organism is exposed to a series of concentrations in liquid medium.

The subject of one experiment is E. coli ATCC25922. The experiment is classed as cell-based, Escherichia coli. As to conditions: Escherichia coli, ATCC25922; cation-adjusted Mueller-Hinton Broth, microdilution; quinolone-sensitive strain; read-out: MIC for E. coli ATCC25922. How it is done:
(§1) Minimal Inhibitory Concentrations (MICs; mg/L) were determined in cation-adjusted Mueller-Hinton Broth by a microdilution method following the description given in “Methods for Dilution Antimicrobial Susceptibility Tests for Bacteria that Grow Aerobically”, Approved standard, 7th ed., Clinical and Laboratory Standards Institute (CLSI) Document M7-A7, Wayne, Pa., USA (2006).
(§2) All Example compounds, except the compound of Example 62, were tested against several Gram-positive and Gram-negative bacteria. […] K. pneumoniae A-651 and Acinetobacter baumannii T6474 are multiply-resistant strains (in particular quinolone-resistant), while E. coli ATCC25922 and P. aeruginosa ATCC27853 are quinolone-sensitive strains.

The next experiment deals with P. aeruginosa ATCC27853. The format is cell-based, Pseudomonas aeruginosa. To be noted: Pseudomonas aeruginosa, ATCC27853; cation-adjusted Mueller-Hinton Broth, microdilution; quinolone-sensitive strain; read-out: MIC for P. aeruginosa ATCC27853. How it is done:
as §1, §2

In experiment [1] the test system is Acinetobacter baumannii T6474. The format is cell-based. To be noted: Acinetobacter baumannii, T6474; cation-adjusted Mueller-Hinton Broth, microdilution; multiply-resistant (quinolone-resistant) strain; read-out: MIC for A. Baumannii T6474. How it is done:
as §1, §2

A further experiment relates to K. pneumoniae A-651. The format is cell-based, Klebsiella pneumoniae. To be noted: Klebsiella pneumoniae, A651; cation-adjusted Mueller-Hinton Broth, microdilution; multiply-resistant (quinolone-resistant) strain; read-out: MIC for K. Pneumoniae A-651. How it is done:
as §1, §2

As a reminder, the MIC is the lowest concentration that inhibits growth of the organism.

Converted amounts (≈) assume the structure as drawn.

On to `C[C@@](CCn1cc2cc(-c3ccc(-n4nccn4)cc3)ccc2n1)(C(=O)NO)S(C)(=O)=O` [Example 12, (R)—N-hydroxy-2-methylsulfonyl-2-methyl-4-[5-(4-[1,2,3]triazol-2-yl-phenyl)-indazol-2-yl]-butanamide], for which the MIC in the experiment with E. coli ATCC25922 is 0.063 µg/mL (≈ 0.139 µM); in the experiment on P. aeruginosa ATCC27853, 2 µg/mL (≈ 4.4 µM); in experiment [1], 1 µg/mL (≈ 2.2 µM); in the experiment with K. pneumoniae A-651, 0.125 µg/mL (≈ 0.275 µM).

In the case of `C[C@@](CCn1cc2cc(C#CC#CC3(O)CSC3)ccc2n1)(C(=O)NO)S(C)(=O)=O` [Example 13, (R)—N-hydroxy-4-(5-((3-hydroxythietan-3-yl)buta-1,3-diyn-1-yl)-2H-indazol-2-yl)-2-methyl-2-(methylsulfonyl)butanamide], the MIC in the experiment on E. coli ATCC25922 turned out to be 0.125 µg/mL (≈ 0.279 µM); with P. aeruginosa ATCC27853, 0.5 µg/mL (≈ 1.12 µM); in experiment [1] it was 32 µg/mL (≈ 71.5 µM); in the experiment with K. pneumoniae A-651 it was 0.25 µg/mL (≈ 0.559 µM).

Regarding `CC(C)(O)c1ccc(C#Cc2ccc3nn(CC[C@](C)(C(=O)NO)S(C)(=O)=O)cc3c2F)cc1` [Example 14, (R)-4-(4-fluoro-5-((4-(2-hydroxypropan-2-yl)phenyl)ethynyl)-2H-indazol-2-yl)-N-hydroxy-2-methyl-2-(methylsulfonyl)butanamide], the minimum inhibitory concentration (MIC) was 0.25 µg/mL (≈ 0.513 µM) with E. coli ATCC25922, 2 µg/mL (≈ 4.1 µM) with P. aeruginosa ATCC27853, 16 µg/mL (≈ 32.8 µM) in experiment [1] and 0.25 µg/mL (≈ 0.513 µM) in the experiment with K. pneumoniae A-651.

Consider `C[C@@](CCn1cc2cc(C#CC#CC3(O)CCOCC3)ccc2n1)(C(=O)NO)S(C)(=O)=O` [Example 15, (R)—N-hydroxy-4-(5-((4-hydroxytetrahydro-2H-pyran-4-yl)buta-1,3-diyn-1-yl)-2H-indazol-2-yl)-2-methyl-2-(methylsulfonyl)butanamide], for which the MIC with E. coli ATCC25922 was 2 µg/mL (≈ 4.35 µM); with P. aeruginosa ATCC27853, 2 µg/mL (≈ 4.35 µM); in experiment [1] it was greater than 32 µg/mL; in the experiment on K. pneumoniae A-651, 2 µg/mL (≈ 4.35 µM).

As for `C[C@@](CCn1cc2cc(C#Cc3ccc(C4(CO)CC4)cc3)ccc2n1)(C(=O)NO)S(C)(=O)=O` [Example 16, (R)—N-hydroxy-4-(5-((4-(1-(hydroxymethyl)cyclopropyl)phenyl)ethynyl)-2H-indazol-2-yl)-2-methyl-2-(methylsulfonyl)butanamide], the MIC with E. coli ATCC25922 was determined as 0.125 µg/mL (≈ 0.26 µM); in the experiment on P. aeruginosa ATCC27853, 1 µg/mL (≈ 2.08 µM); in experiment [1] it was 0.5 µg/mL (≈ 1.04 µM); with K. pneumoniae A-651, 0.125 µg/mL (≈ 0.26 µM).

As for `C[C@@](CCn1cc2cc(/C=C/c3ccccc3)ccc2n1)(C(=O)NO)S(C)(=O)=O` [Example 17, (R)—N-hydroxy-2-methylsulfonyl-2-methyl-4-[5-((E)-styryl)-indazol-2-yl]-butanamide], the MIC amounted to 0.063 µg/mL (≈ 0.152 µM) with E. coli ATCC25922, 16 µg/mL (≈ 38.7 µM) in the experiment on P. aeruginosa ATCC27853, 1 µg/mL (≈ 2.42 µM) in experiment [1] and 0.063 µg/mL (≈ 0.152 µM) in the experiment with K. pneumoniae A-651.

On to `C[C@@](CCn1cc2cc(C#Cc3ccc(N)cc3)ccc2n1)(C(=O)NO)S(C)(=O)=O` [Example 19, (R)-4-[5-(4-amino-phenylethynyl)-indazol-2-yl]-N-hydroxy-2-methylsulfonyl-2-methyl-butanamide], for which the MIC with E. coli ATCC25922 amounted to 0.063 µg/mL (≈ 0.148 µM); in the experiment on P. aeruginosa ATCC27853, 2 µg/mL (≈ 4.69 µM); in experiment [1], 0.5 µg/mL (≈ 1.17 µM); with K. pneumoniae A-651, 0.125 µg/mL (≈ 0.293 µM).

Regarding `C[C@@](CCn1cc2cc(C#Cc3ccc(C4(O)COC4)cc3)ccc2n1)(C(=O)NO)S(C)(=O)=O` [Example 20, (R)—N-hydroxy-4-{5-[4-(3-hydroxy-oxetan-3-yl)-phenylethynyl]-indazol-2-yl}-2-methylsulfonyl-2-methyl-butanamide], the minimal inhibitory concentration (MIC) in the experiment on E. coli ATCC25922 was determined as 0.25 µg/mL (≈ 0.517 µM); in the experiment with P. aeruginosa ATCC27853, 0.5 µg/mL (≈ 1.03 µM); in experiment [1], 0.5 µg/mL (≈ 1.03 µM); in the experiment with K. pneumoniae A-651 it was 0.125 µg/mL (≈ 0.259 µM).

Take `C[C@@](CCn1cc2cc(C#Cc3ccc(CO)cc3)ccc2n1)(C(=O)NO)S(C)(=O)=O` [Example 21, (R)—N-hydroxy-4-(5-((4-(hydroxymethyl)phenyl)ethynyl)-2H-indazol-2-yl)-2-methyl-2-(methylsulfonyl)butanamide]: the MIC in the experiment with E. coli ATCC25922 is 0.125 µg/mL (≈ 0.283 µM); with P. aeruginosa ATCC27853, 1 µg/mL (≈ 2.26 µM); in experiment [1], 0.5 µg/mL (≈ 1.13 µM); in the experiment with K. pneumoniae A-651 it was 0.25 µg/mL (≈ 0.566 µM).

With `C[C@@](CCn1cc2cc(C#Cc3ccc(CO)c(F)c3)ccc2n1)(C(=O)NO)S(C)(=O)=O` [Example 22, (R)-4-[5-(3-fluoro-4-hydroxymethyl-phenylethynyl)-indazol-2-yl]-N-hydroxy-2-methylsulfonyl-2-methyl-butanamide], the minimum inhibitory concentration (MIC) is 0.125 µg/mL (≈ 0.272 µM) in the experiment with E. coli ATCC25922, 2 µg/mL (≈ 4.35 µM) with P. aeruginosa ATCC27853, 1 µg/mL (≈ 2.18 µM) in experiment [1] and 0.5 µg/mL (≈ 1.09 µM) with K. pneumoniae A-651.

In the case of `C[C@@](CCn1cc2c(F)c(C#Cc3ccc(CO)cc3)ccc2n1)(C(=O)NO)S(C)(=O)=O.O=C(O)C(F)(F)F` [Example 23, (R)-4-[4-fluoro-5-(4-hydroxymethyl-phenylethynyl)-indazol-2-yl]-N-hydroxy-2-methylsulfonyl-2-methyl-butanamide trifluoro-acetic acid salt], the MIC turned out to be 0.25 µg/mL with E. coli ATCC25922, 4 µg/mL with P. aeruginosa ATCC27853, 1 µg/mL in experiment [1] and 0.25 µg/mL with K. pneumoniae A-651.

In the case of `C[C@@](CCn1cc2cc(C#Cc3ccc(CCO)cc3)ccc2n1)(C(=O)NO)S(C)(=O)=O` [Example 25, (R)—N-hydroxy-4-{5-[4-(2-hydroxy-ethyl)-phenylethynyl]-indazol-2-yl}-2-methylsulfonyl-2-methyl-butanamide], the MIC turned out to be 0.063 µg/mL (≈ 0.138 µM) in the experiment on E. coli ATCC25922, 0.5 µg/mL (≈ 1.1 µM) in the experiment with P. aeruginosa ATCC27853, 0.5 µg/mL (≈ 1.1 µM) in experiment [1] and 0.063 µg/mL (≈ 0.138 µM) in the experiment on K. pneumoniae A-651.

`C[C@@](CCn1cc2cc(C#Cc3ccc([C@@H](O)CO)cc3)ccc2n1)(C(=O)NO)S(C)(=O)=O` [Example 26, (2R)-4-{5-[4-((R)-1,2-dihydroxy-ethyl)-phenylethynyl]-indazol-2-yl}-N-hydroxy-2-methylsulfonyl-2-methyl-butanamide]: the MIC came to 0.5 µg/mL (≈ 1.06 µM) in the experiment with E. coli ATCC25922, 1 µg/mL (≈ 2.12 µM) in the experiment on P. aeruginosa ATCC27853, 8 µg/mL (≈ 17 µM) in experiment [1] and 0.5 µg/mL (≈ 1.06 µM) in the experiment with K. pneumoniae A-651.

For the compound `CC(C)(O)c1ccc(C#Cc2ccc3nn(CC[C@](C)(C(=O)NO)S(C)(=O)=O)cc3c2)cc1` [Example 27, (R)—N-hydroxy-4-(5-((4-(2-hydroxypropan-2-yl)phenyl)ethynyl)-2H-indazol-2-yl)-2-methyl-2-(methylsulfonyl)butanamide], the MIC was 0.063 µg/mL (≈ 0.134 µM) with E. coli ATCC25922, 0.5 µg/mL (≈ 1.06 µM) in the experiment with P. aeruginosa ATCC27853, 0.25 µg/mL (≈ 0.532 µM) in experiment [1] and 0.125 µg/mL (≈ 0.266 µM) in the experiment on K. pneumoniae A-651.

For the compound `C[C@@](CCn1cc2cc(C#CC#CC3(O)COC3)ccc2n1)(C(=O)NO)S(C)(=O)=O` [Example 28, (R)—N-hydroxy-4-(5-((3-hydroxyoxetan-3-yl)buta-1,3-diyn-1-yl)-2H-indazol-2-yl)-2-methyl-2-(methylsulfonyl)butanamide], the MIC was 0.5 µg/mL (≈ 1.16 µM) in the experiment with E. coli ATCC25922, 1 µg/mL (≈ 2.32 µM) with P. aeruginosa ATCC27853, greater than 32 µg/mL in experiment [1] and 0.5 µg/mL (≈ 1.16 µM) in the experiment with K. pneumoniae A-651.

Take `C[C@@](CCn1cc2c(F)c(C#Cc3ccc(C4(O)COC4)cc3)ccc2n1)(C(=O)NO)S(C)(=O)=O` [Example 29, (R)-4-{4-fluoro-5-[4-(3-hydroxy-oxetan-3-yl)-phenylethynyl]-indazol-2-yl}-N-hydroxy-2-methylsulfonyl-2-methyl-butanamide]: the MIC with E. coli ATCC25922 worked out at 0.25 µg/mL (≈ 0.498 µM); with P. aeruginosa ATCC27853 it was 1 µg/mL (≈ 1.99 µM); in experiment [1], 0.5 µg/mL (≈ 0.997 µM); in the experiment with K. pneumoniae A-651, 0.25 µg/mL (≈ 0.498 µM).

In the case of `CN(C)C1(c2ccc(C#Cc3ccc4nn(CC[C@](C)(C(=O)NO)S(C)(=O)=O)cc4c3)cc2)COC1.Cc1ccc(S(=O)(=O)O)cc1` [Example 30, (R)-4-{5-[4-(3-dimethylamino-oxetan-3-yl)-phenylethynyl]-indazol-2-yl}-N-hydroxy-2-methylsulfonyl-2-methyl-butanamide toluene-4-sulfonic acid salt], the MIC in the experiment with E. coli ATCC25922 came out at 1 µg/mL; with P. aeruginosa ATCC27853, 4 µg/mL; in experiment [1], 2 µg/mL; in the experiment on K. pneumoniae A-651, 2 µg/mL.

As for `C[C@@](CCn1cc2cc(C#CC#CC3(O)COC3)c(F)cc2n1)(C(=O)NO)S(C)(=O)=O` [Example 31, (R)-4-{6-fluoro-5-[4-(3-hydroxy-oxetan-3-yl)-buta-1,3-diynyl]-indazol-2-yl}-N-hydroxy-2-methylsulfonyl-2-methyl-butanamide], the MIC is 1 µg/mL (≈ 2.22 µM) with E. coli ATCC25922, 2 µg/mL (≈ 4.45 µM) with P. aeruginosa ATCC27853, greater than 32 µg/mL in experiment [1] and 1 µg/mL (≈ 2.22 µM) with K. pneumoniae A-651.

Consider `CC(C)(O)C#CC#Cc1ccc2nn(CC[C@](C)(C(=O)NO)S(C)(=O)=O)cc2c1` [Example 32, (R)—N-hydroxy-4-[5-(5-hydroxy-5-methyl-hexa-1,3-diynyl)-indazol-2-yl]-2-methylsulfonyl-2-methyl-butanamide], for which the MIC in the experiment on E. coli ATCC25922 was found to be 0.5 µg/mL (≈ 1.2 µM); with P. aeruginosa ATCC27853 it was 1 µg/mL (≈ 2.4 µM); in experiment [1], 32 µg/mL (≈ 76.6 µM); in the experiment on K. pneumoniae A-651, 0.5 µg/mL (≈ 1.2 µM).

Consider `C[C@@H](O)c1ccc(C#Cc2ccc3nn(CC[C@](C)(C(=O)NO)S(C)(=O)=O)cc3c2)cc1` [Example 33, (R)—N-hydroxy-4-(5-((4-((R)-1-hydroxyethyl)phenyl)ethynyl)-2H-indazol-2-yl)-2-methyl-2-(methylsulfonyl)butanamide], for which the MIC in the experiment on E. coli ATCC25922 was found to be 0.063 µg/mL (≈ 0.138 µM); in the experiment with P. aeruginosa ATCC27853 it was 0.5 µg/mL (≈ 1.1 µM); in experiment [1] it was 2 µg/mL (≈ 4.39 µM); with K. pneumoniae A-651, 0.125 µg/mL (≈ 0.274 µM).
